Test results as given in a melting point compilation (Tetko et al.; mined from patent text by program, amines drawn as free bases though some values may be those of a salt).
Residues, ends and D or L forms follow the SMILES beside them. *: point of attachment. Cbz = O=C(OCc1ccccc1)*; Bn = c1ccc(C*)cc1

First: CN1Cc2c(NC(=O)OCc3ccccc3)ncn2-c2ccccc2C1=O
Second: NC(=O)Cc1c[nH]c2ccc(OCc3ccccc3)cc12
The melting point of the first is higher: 246 to 247 °C for the first, 137 to 140 °C for the second.

First: CC(Cc1c[nH]c2ccccc12)(NC(=O)OC1C2CC3CC(C2)CC1C3)C(=O)NCCc1ccco1 (stereo unspecified)
Second: O=C(CSCCOc1ccccc1)NNC(=O)c1ccc(Cl)nc1
The melting point of the first is lower: 87 to 97 °C for the first, 136 to 138 °C for the second.

Compared with `COc1ccnc(C(=O)N[C@H]2COC(=O)[C@H](Cc3ccccc3)[C@@H](OCSC)[C@H](C)OC2=O)c1O`, `COc1ccc2c(n1)C1(CO2)C(=O)N(Cc2ccccn2)c2ccccc21` (stereo unspecified) is higher in melting point: 159 to 160 °C for the first, 168 to 171 °C for the second.

`N#CC1(c2ccccc2Oc2ccc(Cl)cc2)CCNCC1` and `O=C1OC(CN2CCC(O)(c3ccc(F)cc3)CC2)CN1c1ccccc1` (stereo unspecified) cannot be ordered by melting point: 128 to 130 °C for the first, 128 to 129 °C for the second.

First: O=C1CCC(c2ccc(NN=C(CO)c3ccccc3)cc2)=NN1
Second: O=S(=O)(c1ccccc1)c1ccc(NN=C2CCCN(Cc3ccccc3)CC2)cc1
The melting point of the first is lower: 88 to 96 °C for the first, 142 to 146 °C for the second.

First: CCNC(=O)[C@@H](C[C@H](O)[C@H](CC1CCCCC1)NC(=O)OC(C)(C)C)C(C)(C)O
Second: CC(C)(C)OC(=O)N[C@@H](CCl)[C@H](O)CCl
The melting point of the first is higher: 155 to 157 °C for the first, 142 to 145 °C for the second.

Compared with `CCc1nc2c(N)nc3cccnc3c2n1CC1(O)CCOCC1`, `CCc1nc2c(C)cc(C)nc2n1Cc1ccc(C(c2ccccc2)C(C)C(=O)NS(C)(=O)=O)cc1` (stereo unspecified) is lower in melting point: greater than 250 °C for the first, 117 to 120 °C for the second.

Compared with `CCCc1sc(-c2ccccc2)nc1OC(=O)NC(C)(C)C`, `Cc1sc(-c2ccccc2)nc1COc1ccc(COc2nn(C)cc2CC(=O)O)cn1` is higher in melting point: 97 to 98 °C for the first, 140 to 141 °C for the second.

Compared with `CN(C1=NC(=O)C(=O)S1)c1ccc(-c2ncn(-c3ccc(OC(F)(F)F)cc3)n2)cc1`, `Cn1nnc(-c2cc(-c3ccc(F)cc3)sc2-c2ccc(F)cc2)n1` is higher in melting point: 114 to 118 °C for the first, 150 to 152 °C for the second.

First: COC(=O)CC[C@H](NC(=O)OC(C)(C)C)C(=O)O
Second: CC=COC(=O)C1(S(=O)(=O)C(C)(C)C)C=CC=CC1C[C@H](N)C(=O)O (stereo partly specified)
The melting point of the first is lower: 74 to 77 °C for the first, 88 to 89.5 °C for the second.

Compared with `CN1CCN(c2cc3c(cc2F)c(=O)n(O)c(=O)n3-c2ccccc2F)CC1`, `CCc1c(CC(O)N2CCN(c3cc(C)ccn3)CC2)c2cccc3c2n1CCC3` (stereo unspecified) is lower in melting point: 160 to 162 °C for the first, 60 °C for the second.

First: CCCCCCC(C)(C)c1ccc([C@@H]2CCC[C@H](O)C2)c(O)c1 (relative stereo)
Second: CCCCCN1CC[C@@H](c2ccccc2Cl)[C@H](CO)C1 (racemic)
The melting point of the first is higher: 109 to 110 °C for the first, 101 to 102 °C for the second.

Compared with `CN1CCCN=C1C(Cl)(Cl)[N+](=O)[O-]`, `CCc1nn(C2CN(C(C)C)C2)c(C(N)=O)c1[N+](=O)[O-]` is higher in melting point: 92 to 93 °C for the first, 153 to 156 °C for the second.

First: CC/C(=C(\c1ccc(I)cc1)c1ccc(OCCCCCBr)cc1)c1ccccc1
Second: COc1ccc(/C(=C/C=C/C(=O)Oc2ccc([N+](=O)[O-])cc2)c2ccccc2)cc1
The melting point of the first is lower: 78 to 80 °C for the first, 113 to 115 °C for the second.

First: CC(C)OC(=O)N1CCC(c2nc3cc(-c4ccc(C(N)=O)cn4)ccc3o2)CC1
Second: CC(=O)c1ccc(-c2cnn3c(O)ncnc23)cc1
The melting point of the first is lower: 227 to 230 °C for the first, greater than 300 °C for the second.

Compared with `Cc1c(-c2ccc3c(c2)N(C)C(=O)CS3)nc2ccccn12`, `Cc1ncc(C#N)c(Nc2ccc3[nH]ccc3c2C)c1-c1cc2ccccc2o1` is lower in melting point: 191 °C for the first, 154 to 155 °C for the second.

First: CC(C)C(NC(=O)Cn1cc(Cc2ccc(F)cc2)cc(NC(=O)OCc2ccccc2)c1=O)C(=O)C(F)(F)F (stereo unspecified)
Second: CCNC(=O)C(COCc1ccccc1)NC(=O)C(Cc1ccc(OCc2ccccc2)cc1)NC(=O)C(Cc1c[nH]cn1)NC(=O)OCc1ccccc1 (stereo not drawn) (Cbz-His-Tyr(Bn)-Ser(Bn)-NHEt; configuration not given here)
The melting point of the first is lower: 66 to 72 °C for the first, 182 to 188 °C for the second.

First: CCOC(=O)c1cn(-c2ccc([N+](=O)[O-])cc2)cn1
Second: CCOC(=O)Cc1ccc(NC2=NN(c3ccc(C)cc3)CC2)cc1
The melting point of the first is higher: 198 to 200 °C for the first, 145 to 146 °C for the second.

Compared with `COc1ccc(C=C2COCC(=Cc3ccc(OC)c(C)c3C)C2=O)c(C)c1C`, `COc1cc(C2C3=C(COC3=O)Nc3ccc4nc(C)sc4c32)ccc1[N+](=O)[O-]` (stereo unspecified) is lower in melting point: 225 to 227 °C for the first, 190 to 191 °C for the second.

First: CC1(C)CCC(C)(C)c2cc(C(=O)c3ccc4cc(C(=O)O)ccc4c3)ccc21
Second: COc1cc(OC)c(C23CC4CC(CC(C4)C2)C3)cc1C(=O)Oc1ccc(C(=O)O)cc1
The melting point of the first is lower: 224 °C for the first, 236 to 238 °C for the second.

First: Cc1ccc(S(=O)(=O)Nc2cc(CC(C)C)c([N+](=O)[O-])cc2Br)cc1
Second: CC(C)(C)OC(=O)Nc1ccc(C#Cc2ccc(Cl)cc2)cc1[N+](=O)[O-]
The melting point of the first is lower: 170 °C for the first, 213 to 218 °C for the second.

Compared with `CCCCN(C(=O)c1cc(C(C)(C)C)c(O)c(C(C)(C)C)c1)C1CC(C)(C)N(OC(C)=O)C(C)(C)C1`, `CC(C)(C)c1ccc(Cn2cc(C(=O)C(=O)O)c3cc(-c4ccc(Cl)cc4)ccc32)cc1` is higher in melting point: 161 to 164 °C for the first, 183 to 184 °C for the second.

First: COc1ccc2c(c1)C(=O)N(c1ccc3c(c1)NCCN3)C2
Second: COc1ccc2c(c1)C(=O)CCC21CCC(=O)N(C)C1=O (stereo unspecified)
The melting point of the first is higher: 159 to 163 °C for the first, 116 to 118 °C for the second.

Compared with `CNC(=S)Nc1ccc(Cl)nc1`, `COC(=O)CN(C)c1cc(-c2ccc(Cl)cc2)on1` is lower in melting point: 164 °C for the first, 141 °C for the second.

First: CS(=O)(=O)NC1Cc2ccc(C3=NNC(=O)CC3)cc2C1 (stereo unspecified)
Second: CS(=O)(=O)c1ccc(-c2cc(C(F)F)nn2C2CCCCC2)cc1F
The melting point of the first is higher: 218 to 220 °C for the first, 138 to 139 °C for the second.

Compared with `Cn1nc(-c2cccc(C(F)(F)F)c2)c(Cl)c1C(=O)O`, `FC(F)(F)c1cccc(N2CCN(c3ccc(Cl)nn3)CC2)c1` is lower in melting point: 180 to 183 °C for the first, 149 °C for the second.

First: O=C(O)/C=C1\Cc2ccccc2C1=O
Second: O=S(=O)(N[C@@H]1c2ccccc2CCC[C@H]1O)c1ccccc1 (relative stereo)
The melting point of the first is higher: 201 to 203 °C for the first, 128 °C for the second.

Compared with `CCCCc1cc(C(O)=S)cc(N)c1Cc1ccccc1`, `COCc1cn2c(C)c(C)nc2c(O)c1CCC(=O)c1ccccc1` is higher in melting point: 136 to 138 °C for the first, 167 to 168 °C for the second.

First: CC1=NC(NC(=O)Nc2cccc(C)c2)C(=O)N(CC(=O)C2CCCCCCC2)c2c(C)cccc21 (stereo unspecified)
Second: Cc1c(Cc2cc(=O)n(C3CCCCC3)[nH]2)c2ccccc2n1C(=O)c1ccc(Cl)cc1
The melting point of the first is higher: 163 to 164 °C for the first, 98 °C for the second.

Compared with `CC(C)(CO)C(=O)N(O)Cc1ccccc1Cl`, `COc1ccccc1CN[C@H]1CCCN[C@H]1C(C)(C)C` (relative stereo) is higher in melting point: 130 to 132 °C for the first, greater than 251 °C for the second.

First: Cc1ccc(Br)c2occc12
Second: Cc1ccc2oc(S(=O)(=O)c3ccc(=O)[nH]n3)c(C)c2c1
The melting point of the first is lower: 32 to 33 °C for the first, 246 to 247 °C for the second.

First: COc1cc2c(cc1OC)CCCC(C(=O)O)=C2
Second: COc1cc2cc3c(nc2cc1OC)CCc1cc(Cl)ccc1-3
The melting point of the first is lower: 158 to 159 °C for the first, 197 °C for the second.

First: NCc1nnc2n1-c1sc(Cl)cc1C(c1ccccc1Cl)=NC2
Second: Fc1cccc(F)c1C1=NCC(=S)Nc2ccc(Cl)cc21
The melting point of the first is lower: 190 to 192 °C for the first, 222 to 224 °C for the second.

`CC(=O)NC12CC1CN(c1nc3c(cc1F)c(=O)c(C(=O)O)cn3C1CC1)C2` (stereo unspecified) and `CN1CC[C@@H]2CC(=O)c3cc4c(cc3[C@@H]2C1)OCO4` (relative stereo) cannot be ordered by melting point: 275 °C for the first, greater than 250 °C for the second.

First: CCCCCCCCCCCCC(C)(C)NC(=O)Nc1ccccc1C(=O)NC1CCN(C(c2ccccc2)c2ccccc2)CC1
Second: CCN=C(Cc1ccccc1)N1CC2C(=O)CCC(c3ccccc3)(c3ccccc3)C2C1 (stereo unspecified)
The melting point of the first is higher: 146 to 148 °C for the first, 108 °C for the second.

Compared with `O=S(Cc1ccccn1)c1cnc2ccccc2n1` (stereo unspecified), `CCCOc1ccc(-c2ncc(C#N)c(Cl)n2)cc1` is higher in melting point: 117 to 122 °C for the first, 193 to 194 °C for the second.

Compared with `COc1cc(NC(=O)OC(C)(C)C)c(N)cc1-c1cc(F)ccc1F`, `COc1ccc(C(=O)c2ccc(Cl)cc2Cl)cc1Cl` is lower in melting point: 144 °C for the first, 98 °C for the second.

First: CON1CCN2C(=O)C(c3c(C)cc(C)cc3C)C(=O)N2CC1
Second: COC(c1cc2c3c(c1)c(C)cc(=O)n3CC2)(C(F)(F)F)C(F)(F)F
The melting point of the first is lower: 229 to 230 °C for the first, 242 to 243 °C for the second.

First: FC(F)(F)Sc1cc(C(F)(F)F)[nH]c1-c1ccc(Cl)cc1
Second: Fc1ccc(CN2CCC(Nc3ccc(C(F)(F)F)nn3)CC2)cc1F
The melting point of the first is lower: 53 to 55 °C for the first, 168 to 169 °C for the second.

Compared with `Cc1noc(C)c1NCC#CI`, `CCCCCCn1c(C)cc(C)c(C#N)c1=O` is lower in melting point: 139 to 140 °C for the first, 63 to 69 °C for the second.

Compared with `Fc1ccc(-c2n[nH]c(-c3ccncc3)c2-c2ccncc2)cc1`, `Oc1ccccc1-c1cc(-c2ccc(F)c(F)c2)cc(-c2ccc3ccccc3c2)n1` is lower in melting point: 304 °C for the first, 165 to 167 °C for the second.

First: c1ccc2c(c1)[C@H](N1CCCCC1)C[C@@H]2N1CCCCC1
Second: OCC12CCCN(CCC1)C2
The melting point of the first is higher: 114 to 115 °C for the first, 64 to 65.5 °C for the second.

First: CCN(CC)C(=O)n1cnc(S(=O)(=O)C(F)(F)Br)n1
Second: Cn1c(COc2ccc(CC3SC(=O)NC3=O)cc2)nc2cc(C(F)(F)F)cnc21 (stereo unspecified)
The melting point of the first is lower: 74 to 75 °C for the first, 212 to 214 °C for the second.

First: COc1cc(CCC2=NNC(=O)CC2)cc(OC)c1OC
Second: CCc1nnc(CCCOc2c(C)cc(-c3noc(C)n3)cc2C)s1
The melting point of the first is higher: 116 to 117 °C for the first, 83 to 84 °C for the second.

First: Cc1ccc(C(=O)NC(NC(=NC#N)Nc2cccnc2)C(Cl)(Cl)Cl)cc1 (stereo unspecified)
Second: Cn1c(=O)n(Cc2ccc(C#N)cc2)c(=O)c2nc(-c3ccc(/C=C/C(=O)O)cc3)[nH]c21
The melting point of the first is lower: 165 to 166 °C for the first, greater than 300 °C for the second.

First: COc1ccc2[nH]nc(N3CCN(C[C@@H](O)COc4cccc(-c5noc6ccsc56)c4)CC3)c2c1
Second: CN(C)CCc1cccc(N2C(=O)N(c3ccc(Cl)cc3Cl)Cc3cnc(Nc4ccccc4)nc32)c1
The melting point of the first is lower: 84 to 86 °C for the first, 101 to 105 °C for the second.

Compared with `Cc1noc(CCCCCCCOc2ccc(C3=NCCO3)cc2Cl)c1CO`, `C#CCN(c1ccc(C(=O)NC(CCCCCC(=O)O)C(=O)O)cc1)C1CCc2cc3nc(C)[nH]c(=O)c3cc21` (stereo unspecified) is higher in melting point: 53 to 54 °C for the first, 186 °C for the second.

Compared with `O=C(O)Cn1cc(Cc2nc3c(F)c(F)cc(F)c3s2)c2cccc(F)c21`, `CC(O)c1cccc(-c2cc3c(=O)n(NS(C)(=O)=O)c(=O)[nH]c3cc2C(F)(F)F)c1` (stereo unspecified) is lower in melting point: 194 to 196 °C for the first, 165 to 169 °C for the second.
